Experimental data reported in US7863449B2, “Modulators of muscarinic receptors” (Vertex Pharmaceuticals Incorporated, priority 2004, dated 2011).

Key:
[1] = biological target: T1, M1 muscarinic receptor (Homo sapiens, UniProt P11229); assay: Functional mobilization of intracellular calcium (FLIPR), M1-CHO cells; format: cell-based; details: for Emax: 100% efficacy is the maximum response obtained using Carbachol as a control; for M1 Activity: M1-CHO cells, FLIPR calcium mobilization
T1 construct: expressed in transfected cells; host or cells: CHO (M1-CHO)
T1 sequence (P11229 1-460): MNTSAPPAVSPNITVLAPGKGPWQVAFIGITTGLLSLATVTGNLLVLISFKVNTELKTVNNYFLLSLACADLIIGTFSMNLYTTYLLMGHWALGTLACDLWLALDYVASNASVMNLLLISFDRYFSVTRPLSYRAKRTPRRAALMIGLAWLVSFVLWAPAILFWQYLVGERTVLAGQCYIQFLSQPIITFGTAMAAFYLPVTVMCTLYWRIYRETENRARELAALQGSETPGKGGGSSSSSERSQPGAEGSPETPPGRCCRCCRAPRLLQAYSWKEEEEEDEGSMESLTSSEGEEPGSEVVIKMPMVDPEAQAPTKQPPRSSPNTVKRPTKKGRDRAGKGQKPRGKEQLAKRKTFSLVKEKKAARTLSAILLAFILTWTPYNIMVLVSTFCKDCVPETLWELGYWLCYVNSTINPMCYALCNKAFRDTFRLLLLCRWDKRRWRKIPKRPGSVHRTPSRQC
Description: (§1) Functional Mobilization of Intracellular Calcium to Determine Muscarinic Receptor Activity:
(§2) CHO cells expressing muscarinic receptors (M1 to M5) are grown as monolayers in tissue culture flasks at 37° C. in a humidified atmosphere containing 5% CO2 and passaged every 3-5 days. The growth media is Dulbecco's modified eagles medium (DMEM, Gibco Cat# 12430-054), containing 25 mM Hepes and supplemented with Fetal Bovine Serum (Hyclone, cat# SH30071.03), 0.1 mM of MEM non-essential amino acids (GIBCO, Cat# 11140-050), 1 mM MEM Sodium Pyruvate (GIBCO Cat# 11360-070) and 100 units/ml of Penicillin G and 100 μg/ml of Streptomycin (GIBCO Cat# 15140-122). The recombinant muscarinic receptor cell lines are grown under antibiotic pressure with media containing 25 μg/ml zeocin and 500 μg/ml G418 (M1-CHO), 4 μg/ml puromycin, 50 μg/ml zeocin and 2.5 μg/ml blasticidin (M2 and M4-CHO) or 50 μg/ml zeocin and 4 μg/ml puromycin (M3 and M5-CHO).
(§3) Cells are harvested at 80-90% confluence using Versene (GIBCO Cat# 15040-066), collected by centrifugation and seeded 18-24 hrs prior to running the calcium assay at a density of 5,000-10,000 cells/well in […], clear-bottomed 384-well plates (BD Biocoat, poly-D-lysine, Cat#356663). The day of the experiment, the cells are washed with a plate washer (Bioteck Instruments, ELX 405) using bath1 buffer (140-mM NaCl, 4.5-mM KCl, 2-mM CaCl2, 1-mM MgCl2, 10-mM Hepes-Na, 10-mM Glucose, pH 7.4, with NaOH) containing 1 mM Probenecid. Next, the calcium dye Fluo-3 (25 μl/well of Fluo-3 AM at 4 μM, Molecular Probes F-1241, in Bath 1 buffer containing 1 mM Probenecid) is added to the 25 μl of Bath 1 remaining in each well after the plate wash and the dye is loaded at 37° C. in the tissue culture incubator for 60-90 min. The fluorescent dye is removed using the plate washer with Bath 1 containing 1 mM Probenecid, leaving 25 μl/well of this solution after the wash. Alternatively, cells can be loaded with the calcium indicator from Molecular Devices (Calcium 3 Assay Reagents, Cat # R7181) adding 5 μl of a 5× solution dye in Bath 1 containing 1 mM Probenecid (10 ml per dye flask cat# R7182 to generate a solution 20×) to 20 μl of the same buffer. After loading for 60 min, the experiment can be run without having to remove the dye.
(§4) Compounds are prepared at a 2× fold concentration in a 96-well plate (round bottom, Costar Corning cat# 3656), by reconstituting the pre-spotted compounds in bath 1 containing 1 mM probenecid. The final concentration DMSO is 0.5%, and the amount of DMSO is normalized across the assay plate. To determine an agonist action of the compounds on muscarinic receptors, the reconstituted compounds are added (25 μl compound/well) to the cell assay plate (containing 25 μl/well) using the multi-channel robotic system of the FLIPR 3 Instrument (Molecular Devices, Sunnyvale, Calif.). To determine a functional inhibitory action of the compounds on muscarinic receptors, the reconstituted compounds are added (25 μl compound/well) to the assay plate and pre-incubated for 15 min prior to adding 25 μl of Carbachol at 3× the EC80 for each muscarinic subtype. Alternatively, the compounds can be co-applied simultaneously with the agonist. In both assay modes, the fluorescence is recorded for 60 sec (excitation wavelength is […] and emission wavelength 540 nm) using the FLIPR 3 instrument.
(§5) The potency, efficacy and selectivity of the muscarinic compounds were evaluated by screening the compound activity across the whole family (M1 to M5 cells). Compounds were also screened for activity on other proteins such as other GPCRs and ion channels to determine selectivity on M4 receptors.

[2] = biological target: T2, M4 muscarinic receptor (Homo sapiens, UniProt P08173); assay: Functional mobilization of intracellular calcium (FLIPR), M4-CHO cells; format: cell-based; details: for Emax: 100% efficacy is the maximum response obtained using Carbachol as a control; for M4 Activity: M4-CHO cells, FLIPR calcium mobilization
T2 construct: expressed in transfected cells; host or cells: CHO (M4-CHO)
T2 sequence (P08173 1-479): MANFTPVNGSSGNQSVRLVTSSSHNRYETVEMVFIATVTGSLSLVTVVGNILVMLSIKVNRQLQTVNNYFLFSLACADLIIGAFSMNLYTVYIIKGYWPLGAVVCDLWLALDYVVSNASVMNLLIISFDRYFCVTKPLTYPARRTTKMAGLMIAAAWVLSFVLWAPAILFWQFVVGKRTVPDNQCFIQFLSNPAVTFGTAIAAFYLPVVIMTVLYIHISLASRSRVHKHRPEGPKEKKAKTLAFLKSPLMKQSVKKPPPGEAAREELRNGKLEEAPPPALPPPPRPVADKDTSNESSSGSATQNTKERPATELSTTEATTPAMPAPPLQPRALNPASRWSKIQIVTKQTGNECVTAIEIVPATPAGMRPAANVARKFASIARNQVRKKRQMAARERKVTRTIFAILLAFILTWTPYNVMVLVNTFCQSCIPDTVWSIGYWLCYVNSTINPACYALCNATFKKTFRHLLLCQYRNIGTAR
Description: as §1, §2, §3, §4, §5

SMILES | Emax [1] | M1 Activity [1] | Emax [2] | M4 Activity [2]
CCOC(=O)N1C2CCC1CC(N1CCC3(CC1)CN(C(=O)c1cc(C)nn1C(C)(C)C)Cc1ccccc13)C2 (stereo not shown) [compound 15] | 25 to 100% | +++ (activity was measured to be less than 1.0 μM) | 25 to 100% | +++ (activity was measured to be less than 1.0 μM)
CCOC(=O)N1CCC(N2CCC3(CC2)CN(C(=O)Nc2ccccc2)Cc2ccccc23)CC1 [compound 16] | 25 to 100% | +++ (activity was measured to be less than 1.0 μM) | 25 to 100% | +++ (activity was measured to be less than 1.0 μM)
CCOC(=O)N1C2CCC1CC(N1CCC3(CC1)CN(C(=O)c1cccnc1)Cc1ccccc13)C2 (stereo not shown) [compound 17] | 25 to 100% | +++ (activity was measured to be less than 1.0 μM) | 25 to 100% | +++ (activity was measured to be less than 1.0 μM)
CCOC(=O)N1C2CCC1CC(N1CCC3(CC1)CN(S(=O)(=O)c1ccc(C)cc1)Cc1ccccc13)C2 (stereo not shown) [compound 18] | 25 to 100% | +++ (activity was measured to be less than 1.0 μM) | 25 to 100% | +++ (activity was measured to be less than 1.0 μM)
O=C1OC2(CCN(C[C@H]3C[C@H]4C=C[C@H]3C4)CC2)c2ccc(Cl)cc21 [compound 19] | 25 to 100% | ++ (activity was measured to be from 1.0 μM to 5.0 μM) | < 25% | ++ (activity was measured to be from 1.0 μM to 5.0 μM)
CCOC(=O)N1CCC(N2CCC3(CC2)c2ccccc2C(=O)N3Cc2ccccc2)CC1 [compound 20, ethyl 4-(2-benzyl-3-oxospiro[isoindoline-1,4′-piperidine]-1′-yl)piperidine-1-carboxylate] | 25 to 100% | ++ (activity was measured to be from 1.0 μM to 5.0 μM) | < 25% | + (activity was measured to be greater than 5.0 μM)
CC(=O)N1Cc2ccccc2C2(CCN(C3CC4CCC(C4)C3)CC2)C1 (stereo not shown) [compound 21] | 25 to 100% | + (activity was measured to be greater than 5.0 μM) | 25 to 100% | + (activity was measured to be greater than 5.0 μM)
CCOC(=O)N1CCC(CN2CCC3(CC2)CN(C(=O)OCCOC)Cc2ccccc23)CC1 [compound 22] | 25 to 100% | +++ (activity was measured to be less than 1.0 μM) | 25 to 100% | +++ (activity was measured to be less than 1.0 μM)
CCOC(=O)N1CCC(N2CCC3(CC2)CN(C(=O)OCCOC)Cc2ccccc23)CC1 [compound 23] | 25 to 100% | +++ (activity was measured to be less than 1.0 μM) | 25 to 100% | +++ (activity was measured to be less than 1.0 μM)
CCCS(=O)(=O)N1Cc2ccccc2C2(CCN(C3CC4CCC(C3)N4C(=O)O[C@@H]3CCOC3)CC2)C1 (stereo partly shown) [compound 24] | 25 to 100% | +++ (activity was measured to be less than 1.0 μM) | 25 to 100% | +++ (activity was measured to be less than 1.0 μM)
CCOC(=O)N1CCC(N2CCC3(CC2)CN(S(=O)(=O)c2c(C)noc2C)Cc2ccccc23)CC1 [compound 25] | 25 to 100% | +++ (activity was measured to be less than 1.0 μM) | 25 to 100% | +++ (activity was measured to be less than 1.0 μM)
CCOC(=O)N1C2CCC1CC(N1CCC3(CC1)CN(C(=O)OC1CCC1)Cc1ccccc13)C2 (stereo not shown) [compound 27] | 25 to 100% | +++ (activity was measured to be less than 1.0 μM) | 25 to 100% | +++ (activity was measured to be less than 1.0 μM)
CC(=O)N1Cc2ccccc2C2(CCN(C3CCN(C(=O)O[C@@H]4CCOC4)CC3)CC2)C1 [compound 32] | 25 to 100% | +++ (activity was measured to be less than 1.0 μM) | 25 to 100% | +++ (activity was measured to be less than 1.0 μM)
CC(=O)N1Cc2ccccc2C2(CCN(CC3CCCCC3)CC2)C1 [compound 35] | < 25% | + (activity was measured to be greater than 5.0 μM) | < 25% | ++ (activity was measured to be from 1.0 μM to 5.0 μM)
COc1ccc(CN2CCC3(CC2)CN(C(C)=O)Cc2ccccc23)cn1 [compound 37] | 25 to 100% | + (activity was measured to be greater than 5.0 μM) | < 25% | + (activity was measured to be greater than 5.0 μM)
CC(=O)N1Cc2ccccc2C2(CCN(Cc3ccccn3)CC2)C1 [compound 40] | < 25% | + (activity was measured to be greater than 5.0 μM) | < 25% | + (activity was measured to be greater than 5.0 μM)
Cc1ccc2c(c1)C1(CCN(CC3CCOCC3)CC1)OC2=O [compound 41] | 25 to 100% | + (activity was measured to be greater than 5.0 μM) | < 25% | + (activity was measured to be greater than 5.0 μM)
O=C(c1ccccc1)N1CCC(N2CCC3(CC2)c2ccccc2C(=O)N3Cc2ccccc2)CC1 [compound 42] | < 25% | + (activity was measured to be greater than 5.0 μM) | < 25% | + (activity was measured to be greater than 5.0 μM)
CC(=O)N1Cc2ccccc2C2(CCN(CC3CCN(C(=O)O[C@@H]4CCOC4)CC3)CC2)C1 [compound 45] | < 25% | + (activity was measured to be greater than 5.0 μM) | < 25% | + (activity was measured to be greater than 5.0 μM)
